Laboratory results from BindingDB's records for doi:10.3109/14756366.2011.639016 (Gazi University, 2013).

How the values were obtained:
Carbonic anhydrase 1 = Carbonic anhydrase 1 (Homo sapiens, UniProt P00915); experiment: Esterase Activity Assay; conditions: pH 7.4
Method: (§1) The enzymatic reaction contained 1.4 mL 0.05 M Tris-SO4 buffer(pH 7.4), 1 mL 3 mM 4-nitrophenylacetate, 0.5 mL H2O and 0.1 mL enzyme solution (total volume, 3.0 mL). A reference measurement was obtained by preparing themixture without the enzyme solution. All measurements were made in triplicate.

Carbonic anhydrase 2 = Carbonic anhydrase 2 (Homo sapiens, UniProt P00918); experiment: Esterase Activity Assay; conditions: pH 7.4
Method: as §1

Carbonic anhydrase 1, sequence (P00915 whole entry): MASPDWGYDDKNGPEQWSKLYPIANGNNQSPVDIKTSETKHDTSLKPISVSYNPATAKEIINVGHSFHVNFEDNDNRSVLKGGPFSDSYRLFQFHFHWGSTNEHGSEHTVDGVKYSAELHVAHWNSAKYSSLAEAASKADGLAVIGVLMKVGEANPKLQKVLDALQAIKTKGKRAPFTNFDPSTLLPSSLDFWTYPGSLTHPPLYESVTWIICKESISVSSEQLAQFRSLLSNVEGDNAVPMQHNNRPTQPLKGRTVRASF

Structure (SMILES) | IC50 (Carbonic anhydrase 1) | Ki (Carbonic anhydrase 1) | IC50 (Carbonic anhydrase 2) | Ki (Carbonic anhydrase 2)
Cc1ccc(-c2c(C#N)c(N)nc3c2CCSC3)o1 [CA inhibitor, 5l] | 53 µM | 50.3 µM | – | –
Cc1ccc(-c2c(C#N)c(N)nc3c2CCSC3)s1 [CA inhibitor, 5i] | 55 µM | 38.4 µM | – | –
Cc1ccc(-c2c(C#N)c(N)nc3c2CCCC3)s1 [2-azanyl-4-(5-methylthiophen-2-yl)-5,6,7,8-tetrahydroquinoline-3-carbonitrile] | 34 µM | 31 µM | 99 µM | 182 µM
Cc1ccc(-c2c(C#N)c(N)nc3c2CCCCC3)o1 [CA inhibitor, 5f] | 53 µM | 58.5 µM | – | –
Cc1ccc(-c2c(C#N)c(N)nc3c2CCCCC3)s1 [CA inhibitor, 5c] | 40 µM | 30.6 µM | 77 µM | 73 µM
Cc1ccc(-c2c(C#N)c(N)nc3c2CCCC3)o1 [CA inhibitor, 5e] | 48 µM | 89 µM | – | –
Cc1ccc(-c2c(C#N)c(N)nc3c2CCC3)o1 [CA inhibitor, 5d] | 33 µM | 23.8 µM | 56 µM | 41 µM
